Test results: patent US4521423A, “7,8,9,10-Tetrahydrobenzo[h]quinolin-9-amine derivatives and compositions and methods for treating depression employing them” (Ayerst, McKenna & Harrison, Ltd., priority 1983, dated 1985)

How the values were obtained:
serotonin uptake = experiment: in vitro [3H]serotonin uptake inhibition, rat brain preparation; assay type: biochemical; settings: concentration of 1×10^-6 moles
Source text: (§1) For example, the ability of the present compounds to block substantially the uptake of norepinephrine and serotonin, characteristic properties of antidepressants, can be shown in the in vitro test using rat brain preparation as described by M. H. Kannengiesser, P. Hunt and J.-P. Raynaud, Biochem. Pharmacol., 22, 73 (1973); see also E. G. Shaskan and S. H. Snyder, J. Pharmacol. Exptl. Therap., 175, 404 (1970), and J. Glowinski and L. L. Iversen, J. Neurochemistry, 13, 655 (1966).

norepinephrine uptake = experiment: in vitro [3H]norepinephrine uptake inhibition, rat brain preparation; assay type: biochemical; settings: concentration of 1×10^-6 moles
Source text: as §1

## CCCN(CCC)C1CCc2ccc3cccnc3c2C1 (centres unmarked) [7,8,9,10-Tetrahydro-N,N-dipropylbenzo[h]quinolin-9-amine]
Serotonin uptake
  inhibition of [3H]serotonin uptake: 57%
Norepinephrine uptake
  inhibition of [3H]norepinephrine uptake: 52%
